# Source: patent US20210254272A1, “TEXTILES HAVING ANTIMICROBIAL PROPERTIES” (Livinguard AG, priority 2015, published 2021)
# Test system: E. coli (ATCC 25922)
# Experiment: AATCC Test Method 100-2012 antibacterial activity of the treated textile, after 25 washes and 12 abrasion cycles, contact time 60 minutes
# Format: cell-based
# Details: for Log reduction of antimicrobial performance: 1% o.w.f; for Log reduction of antimicrobial performance in 100 GSM Polyester fabric / Log reduction of antimicrobial performance in 100 GSM cotton fabric / Log reduction of antimicrobial performance in 300 GSM Polyester fabric / Log reduction of antimicrobial performance in 300 GSM cotton fabric / Performance Test-Log reduction of antimicrobial performance: 2 min; for Performance Test-Log reduction of antimicrobial performance: pad process, single agent 5 gm/lit
# Experimental: The antibacterial activity of the textile was tested in accordance with AATCC Test Method 100-2012. Prior to the test, the fabric was cut into coupons of 2×4 inches and washed separately 25 times, and exposed to 12 abrasion cycles, as per US EPA protocol 90072PA4 (described further below). The tests were made against E. coli (ATCC 25922). Contact time was 60 minutes, after inoculating with 10^8 CFU per coupon.
# [1] = exhaust 80° C., 60 min, curing 180° C., dosage 0.1% o.w.f
# [2] = exhaust 80° C., 60 min, curing 180° C., dosage 0.2% o.w.f
# [3] = exhaust 80° C., 60 min, curing 180° C., dosage 0.5% o.w.f
# [4] = exhaust 80° C., 60 min, curing 180° C., dosage 0.8% o.w.f
# [5] = exhaust 80° C., 60 min, curing 180° C., dosage 1.0% o.w.f
substance,measurement,setting,value
Silver,Log reduction of antimicrobial performance of each active ingredient,"exhaust 60° C., solution dosage 1% o.w.f, process time 60 min",1.1 Log
same,Log reduction of antimicrobial performance of each active ingredient,"exhaust 60° C., solution dosage 1% o.w.f, process time 90 min",1.3 Log
same,Log reduction of antimicrobial performance of each active ingredient,"exhaust 60° C., solution dosage 1% o.w.f, process time 120 min",1.5 Log
same,Log reduction of antimicrobial performance of each active ingredient,"exhaust 60° C., solution dosage 1% o.w.f, process time 180 min",1.8 Log
same,Log reduction of antimicrobial performance of each active ingredient,"exhaust 60° C., solution dosage 1% o.w.f, process time 240 min",1.75 Log
same,Log reduction of antimicrobial performance,"exhaust 80° C., 60 min, curing 170° C., curing dwell time 0.5 min",0.2 Log
same,Log reduction of antimicrobial performance,"exhaust 80° C., 60 min, curing 170° C., curing dwell time 1.0 min",0.5 Log
same,Log reduction of antimicrobial performance,"exhaust 80° C., 60 min, curing 170° C., curing dwell time 1.5 min",0.7 Log
same,Log reduction of antimicrobial performance,"exhaust 80° C., 60 min, curing 170° C., curing dwell time 2.0 min",1.6 Log
same,Log reduction of antimicrobial performance,"exhaust 80° C., 60 min, curing 170° C., curing dwell time 2.5 min",1.1 Log
same,Log reduction of antimicrobial performance,"exhaust 80° C., 60 min, curing 170° C., curing dwell time 3.0 min",0.7 Log
same,Log reduction of antimicrobial performance,"exhaust 80° C., 60 min, curing 180° C., curing dwell time 0.5 min",1.1 Log
same,Log reduction of antimicrobial performance,"exhaust 80° C., 60 min, curing 180° C., curing dwell time 1.0 min",1.3 Log
same,Log reduction of antimicrobial performance,"exhaust 80° C., 60 min, curing 180° C., curing dwell time 1.5 min",1.5 Log
same,Log reduction of antimicrobial performance,"exhaust 80° C., 60 min, curing 180° C., curing dwell time 2.0 min",3.8 Log
same,Log reduction of antimicrobial performance,"exhaust 80° C., 60 min, curing 180° C., curing dwell time 2.5 min",3.7 Log
same,Log reduction of antimicrobial performance,"exhaust 80° C., 60 min, curing 180° C., curing dwell time 3.0 min",3.5 Log
same,Log reduction of antimicrobial performance,"exhaust 80° C., 60 min, curing 190° C., curing dwell time 0.5 min",0.6 Log
same,Log reduction of antimicrobial performance,"exhaust 80° C., 60 min, curing 190° C., curing dwell time 1.0 min",0.9 Log
same,Log reduction of antimicrobial performance,"exhaust 80° C., 60 min, curing 190° C., curing dwell time 1.5 min",1.5 Log
same,Log reduction of antimicrobial performance,"exhaust 80° C., 60 min, curing 190° C., curing dwell time 2.0 min",2.79 Log
same,Log reduction of antimicrobial performance,"exhaust 80° C., 60 min, curing 190° C., curing dwell time 2.5 min",2.2 Log
same,Log reduction of antimicrobial performance,"exhaust 80° C., 60 min, curing 190° C., curing dwell time 3.0 min",1.1 Log
same,Log reduction of antimicrobial performance,"exhaust 80° C., 60 min, curing temperature 100 ° C.",0.21 Log
same,Log reduction of antimicrobial performance,"exhaust 80° C., 60 min, curing temperature 120 ° C.",0.32 Log
same,Log reduction of antimicrobial performance,"exhaust 80° C., 60 min, curing temperature 140 ° C.",0.99 Log
same,Log reduction of antimicrobial performance,"exhaust 80° C., 60 min, curing temperature 160 ° C.",1.04 Log
same,Log reduction of antimicrobial performance,"exhaust 80° C., 60 min, curing temperature 165 ° C.",1.12 Log
same,Log reduction of antimicrobial performance,"exhaust 80° C., 60 min, curing temperature 170 ° C.",1.59 Log
same,Log reduction of antimicrobial performance,"exhaust 80° C., 60 min, curing temperature 175 ° C.",2.05 Log
same,Log reduction of antimicrobial performance,"exhaust 80° C., 60 min, curing temperature 180 ° C.",2.78 Log
same,Log reduction of antimicrobial performance,"exhaust 80° C., 60 min, curing temperature 185 ° C.",2.79 Log
same,Log reduction of antimicrobial performance,"exhaust 80° C., 60 min, curing temperature 190 ° C.",2.8 Log
same,Log reduction of antimicrobial performance,"exhaust 80° C., 60 min, curing temperature 195 ° C.",2.82 Log
same,Log reduction of antimicrobial performance in 100 GSM Polyester fabric,[1],0.56 Log
same,Log reduction of antimicrobial performance in 100 GSM cotton fabric,[1],0.55 Log
same,Log reduction of antimicrobial performance in 300 GSM Polyester fabric,[1],0.54 Log
same,Log reduction of antimicrobial performance in 300 GSM cotton fabric,[1],0.57 Log
same,Log reduction of antimicrobial performance in 100 GSM Polyester fabric,[2],1.45 Log
same,Log reduction of antimicrobial performance in 100 GSM cotton fabric,[2],1.35 Log
same,Log reduction of antimicrobial performance in 300 GSM Polyester fabric,[2],1.48 Log
same,Log reduction of antimicrobial performance in 300 GSM cotton fabric,[2],1.35 Log
same,Log reduction of antimicrobial performance in 100 GSM Polyester fabric,[3],1.77 Log
same,Log reduction of antimicrobial performance in 100 GSM cotton fabric,[3],1.67 Log
same,Log reduction of antimicrobial performance in 300 GSM Polyester fabric,[3],1.79 Log
same,Log reduction of antimicrobial performance in 300 GSM cotton fabric,[3],1.67 Log
same,Log reduction of antimicrobial performance in 100 GSM Polyester fabric,[4],1.85 Log
same,Log reduction of antimicrobial performance in 100 GSM cotton fabric,[4],1.84 Log
same,Log reduction of antimicrobial performance in 300 GSM Polyester fabric,[4],1.85 Log
same,Log reduction of antimicrobial performance in 300 GSM cotton fabric,[4],1.87 Log
same,Log reduction of antimicrobial performance in 100 GSM Polyester fabric,[5],2.68 Log
same,Log reduction of antimicrobial performance in 100 GSM cotton fabric,[5],2.87 Log
same,Log reduction of antimicrobial performance in 300 GSM Polyester fabric,[5],2.65 Log
same,Log reduction of antimicrobial performance in 300 GSM cotton fabric,[5],2.88 Log
same,Log reduction of antimicrobial performance of each active ingredient,"exhaust 80° C., 60 min, dosage 1% o.w.f (test up to 5% o.w.f)",2.35 Log
same,Log reduction of antimicrobial performance of each active ingredient,"exhaust 80° C., 60 min, dosage 2% o.w.f",2.36 Log
same,Log reduction of antimicrobial performance of each active ingredient,"exhaust 80° C., 60 min, dosage 3% o.w.f",2.37 Log
same,Log reduction of antimicrobial performance of each active ingredient,"exhaust 80° C., 60 min, dosage 4% o.w.f",2.38 Log
same,Log reduction of antimicrobial performance of each active ingredient,"exhaust 80° C., 60 min, dosage 5% o.w.f",2.41 Log
same,Log reduction of antimicrobial performance of each active ingredient,"exhaust 80 ° C., solution dosage 1% o.w.f, process time 10 min",0.5 Log
same,Log reduction of antimicrobial performance of each active ingredient,"exhaust 80 ° C., solution dosage 1% o.w.f, process time 20 min",1 Log
same,Log reduction of antimicrobial performance of each active ingredient,"exhaust 80 ° C., solution dosage 1% o.w.f, process time 30 min",1.4 Log
same,Log reduction of antimicrobial performance of each active ingredient,"exhaust 80 ° C., solution dosage 1% o.w.f, process time 40 min",1.9 Log
same,Log reduction of antimicrobial performance of each active ingredient,"exhaust 80 ° C., solution dosage 1% o.w.f, process time 50 min",2.4 Log
same,Log reduction of antimicrobial performance of each active ingredient,"exhaust 80 ° C., solution dosage 1% o.w.f, process time 60 min",2.8 Log
same,Log reduction of antimicrobial performance of each active ingredient,"exhaust 80 ° C., solution dosage 1% o.w.f, process time 70 min",2.8 Log
same,Log reduction of antimicrobial performance of each active ingredient,"exhaust 80 ° C., solution dosage 1% o.w.f, process time 80 min",2.8 Log
same,Log reduction of antimicrobial performance of each active ingredient,"exhaust 80 ° C., solution dosage 1% o.w.f, process time 90 min",2.9 Log
same,Performance Test-Log reduction of antimicrobial performance,curing 120° C.,0.02 Log
same,Performance Test-Log reduction of antimicrobial performance,curing 140° C.,0.24 Log
same,Performance Test-Log reduction of antimicrobial performance,curing 150° C.,0.31 Log
same,Performance Test-Log reduction of antimicrobial performance,curing 160° C.,0.53 Log
